Experimental data published in paper PMC4453016, “Novel Bifunctional Cyclic Chelator for ^89Zr Labeling–Radiolabeling and Targeting Properties of RGD Conjugates” (Molecular Pharmaceutics, 2015).
Values joined by “and” are separate entries in the source; they are usually repeats but may differ in a detail not shown here. Identical values can stand only once.

Key:
[1] = Stability assay in PBS and human serum; assay type: physicochemical; conditions: period of 7 days, 37 °C; no demetalation was observed
Procedure: (§1) Determination of the stability of [^89Zr]DFO, [^89Zr]TAFC, and [^89Zr]FSC-RGD conjugates was carried out by incubating the radioligands in PBS, 1000-fold molar excess of EDTA solution with different pH (pH 7 and pH 6; radioligand vs EDTA: 25 μM vs 25 mM) as well as in human serum for 7 days at 37 °C, respectively. At selected time points three aliquots of PBS and EDTA solution were analyzed directly via ITLC, while the three serum aliquots were mixed with 500 μL of CH3CN, vortexed, and centrifuged at 20,000 rcf for 2 min prior to analysis.

[2] = Protein binding assay in fresh human serum (size exclusion spin column); conditions: 37 °C, incubation time 168 h
[3] = Transchelation study with 1000-fold molar excess of TAFC or DFO (RP-HPLC); assay type: physicochemical; conditions: for % intact starting species by incubation time: RT, n = 3
Procedure: [^89Zr]DFO and [^89Zr]TAFC (50 μL each) were mixed with a 1000-fold molar excess of either TAFC or DFO for 7 days at RT. At selected time points aliquots of the solutions were analyzed directly via RP-HPLC. ([^89Zr]DFO tR = 4.8 min; [^89Zr]TAFC tR = 5.9 min). The transchelation was determined by the ratio of [^89Zr]DFO and [^89Zr]TAFC. Three replicates were analyzed for each radioligand.

[4] = Distribution coefficient (logD), octanol/PBS; conditions: pH 7.4
[5] = Stability assay in 1000-fold molar excess of EDTA solution (ITLC); assay type: physicochemical; conditions: for transchelation in EDTA solution: 1000-fold molar excess of EDTA; for % intact starting species by incubation time: competitor EDTA 1000-fold excess, 37 °C, n = 3
Procedure: as §1

[6] = Biodistribution of [^89Zr]TAFC in healthy mice; assay type: in vivo, BALB/c mice; conditions: normal mice, i.v., 6 h p.i., n = 4
Procedure: For the evaluation of biodistribution, four healthy female BALB/c mice (Charles River Laboratories, Sulzfeld, GER) were intravenously injected with [^89Zr]TAFC (∼1.5 MBq/mouse, ∼4 μg of precursor) into the tail vein and sacrificed at 6 h postinjection (p.i.). For the evaluation of tumor uptake of [^89Zr]FSC(succ-RGD)3 female, athymic BALB/c nude mice (Charles River Laboratories) were used. For the induction of tumor xenografts mice were injected subcutaneously with 5 × 10^6 αvβ3 integrin positive M21 cells into the right hind limb and with 5 × 10^6 αvβ3 integrin negative M21-L cells (negative control) into the left hind limb of the same mouse (n = 4). The tumors were allowed to grow until they had reached a volume of 0.3 to 0.6 cm^3. On the day of the experiment [^89Zr]FSC(succ-RGD)3 (∼0.5 MBq/mouse, ∼0.5 μg of peptide) was intravenously injected in the lateral tail vein. Mice were sacrificed by cervical dislocation at 1, 2, and 4 h after injection. Organs (spleen, pancreas, stomach, intestine, kidney, liver, heart, and lung), blood, muscle tissue, bone, and tumors were dissected and weighted. As a comparison, four tumor-bearing mice were intravenously injected in the tail vein with [^68Ga]FSC(succ-RGD)3 (∼0.5 MBq/mouse, ∼0.5 μg of precursor) and sacrificed at 1 h p.i. Activity of the different samples was measured in the gamma counter. Results were expressed as percentage of injected dose per gram tissue (% ID/g).

stability in PBS and human serum [1] | protein binding (%) [2] [%] | logD [4] | transchelation in EDTA solution ([5]; pH 7, after 7 days, ITLC) | % intact starting species by incubation time ([5]; pH 6, 1 h) [%] | % intact starting species by incubation time ([5]; pH 6, 4 h) [%] | % intact starting species by incubation time ([5]; pH 6, 1 d) [%] | % intact starting species by incubation time ([5]; pH 6, 3 d) [%] | % intact starting species by incubation time ([5]; pH 6, 5 d) [%] | % intact starting species by incubation time ([5]; pH 7, 1 h) [%] | % intact starting species by incubation time ([5]; pH 7, 4 h) [%] | % intact starting species by incubation time ([5]; pH 7, 1 d) [%] | % intact starting species by incubation time ([5]; pH 7, 3 d) [%] | % intact starting species by incubation time ([5]; pH 7, 5 d) [%] | % intact starting species by incubation time ([5]; pH 7, 7 d) [%] | Compound | further results
high stability | 8.7 ± 1.0 | -3 | ~60% | 94.6 ± 0.4 | 63.5 ± 3.6 | 38.2 ± 8.4 | 6.4 ± 2.0 | 6.0 ± 1.8 | 95.5 ± 0.5 | 76.0 ± 1.0 | 55.4 ± 3.2 | 41.0 ± 5.2 | 43.3 ± 2.5 | 42.2 ± 2.3 | CC(=O)N(O)CCCCCNC(=O)CCC(=O)N(O)CCCCCNC(=O)CCC(=O)N(O)CCCCCN [[^89Zr]DFO, desferrioxamine B, metal not drawn, reference compound] | % intact starting species by incubation time ([3]; competitor TAFC 1000-fold excess, pH 6, 1 h): 0.0 ± 0.0%; fraction transchelated in 1000-fold molar excess of TAFC ([3]; within 1 h): 100%; transchelation in EDTA solution ([5]; pH 6, after 3 days): more than 90%
high stability | 6.8 ± 0.5 | -2 | no transchelation | 99.0 ± 0.1 | 98.1 ± 0.2 | 96.0 ± 0.6 | 94.7 ± 0.3 | 95.9 ± 0.3 | 99.6 ± 0.1 | 99.6 ± 0.1 | 99.3 ± 0.2 | 96.9 ± 0.3 | 98.3 ± 0.1 | 97.2 ± 0.2 | CC(=O)NC1CCCN(O)C(=O)/C=C(/C)CCOC(=O)C(NC(C)=O)CCCN(O)C(=O)/C=C(/C)CCOC(=O)C(NC(C)=O)CCCN(O)C(=O)/C=C(/C)CCOC1=O (centres unmarked) [[^89Zr]TAFC, triacetylfusarinine C, metal not drawn] | blood activity [6]: 0.05 ± 0.01 % ID/g; renal retention (kidney) [6]: 0.86 ± 0.48 % ID/g; uptake of bone [6]: 0.04 ± 0.02 % ID/g; % intact starting species by incubation time ([3]; competitor DFO 1000-fold excess, pH 6, 1 h): 96.7 ± 0.2%; % intact starting species by incubation time ([3]; competitor DFO 1000-fold excess, pH 6, 4 h): 91.9 ± 0.3%; % intact starting species by incubation time ([3]; competitor DFO 1000-fold excess, pH 6, 1 d): 74.2 ± 3.0%; % intact starting species by incubation time ([3]; competitor DFO 1000-fold excess, pH 6, 3 d): 53.0 ± 4.1%; % intact starting species by incubation time ([3]; competitor DFO 1000-fold excess, pH 6, 5 d): 43.3 ± 3.5%; % intact starting species by incubation time ([3]; competitor DFO 1000-fold excess, pH 6, 7 d): 40% and 39.8 ± 2.0%; transchelation in an EDTA challenging experiment ([5]; after 7 days): 3–5%; % intact starting species by incubation time ([5]; pH 6, 7 d): 94.4 ± 0.5%
